# In US20190053492A1, “SUBSTITUTED PYRIDINE COMPOUNDS AS PESTICIDES” (Bayer CropScience Aktiengesellschaft, priority 2016, published 2019):
# Like-named read-outs stand apart in the source and are kept apart here.
# Columns and labels:
# Spodoptera frugiperda = Spodoptera frugiperda spray test; assay type: in vivo; conditions: after 7 days, maize leaf discs
# Method: Spodoptera frugiperda—Spray Test
# Solvent: 78.0 parts by weight of acetone • • 1.5 parts by weight of dimethylformamide
# Emulsifier: alkylaryl polyglycol ether
# To produce a suitable active ingredient formulation, 1 part by weight of active ingredient is dissolved with the specified parts by weight of solvent and made up with water containing an emulsifier concentration of 1000 ppm until the desired concentration is attained. To produce further test concentrations, the formulation is diluted with emulsifier-containing water.
# Leaf discs of maize (Zea mays) are sprayed with an active ingredient formulation of the desired concentration and, after drying, populated with caterpillars of the armyworm (Spodoptera frugiperda).
# After 7 days, the efficacy in % is determined. 100% means that all the caterpillars have been killed; 0% means that no caterpillar has been killed.
# [1] = log P by HPLC on reversed-phase column (C 18), EEC Directive 79/831 Annex V.A8; assay type: physicochemical; conditions: 55° C.; for LOGP_HCOOH: log P (HCOOH); for chromatographic logP: reversed-phase HPLC column (C 18)
# Method: Temperature: 55° C. […] Called log P (HCOOH) in the table. […] Called log P (neutral) in the table.
# [2] = acidic range at pH 2.7, 0.1% aqueous formic acid and acetonitrile, HPLC on reversed-phase column (C 18)
# [3] = log P, neutral range, HPLC on reversed-phase column (C 18)
# [4] = acidic range pH 2.7, 0.1% aqueous formic acid and acetonitrile, reversed-phase column (C 18)
# [5] = Spodoptera frugiperda, foliar, 168 h, application rate 500 g/ha, read-out: efficacy (caterpillars killed)
# [6] = pH 2.7, LC-MS acidic range, pH 2.7, 0.1% formic acid/acetonitrile, read-out: log P (acidic) / log P (HCOOH)
# [7] = pH 7.8, LC-MS neutral range, pH 7.8, ammonium hydrogencarbonate/acetonitrile, read-out: log P (neutral)
"LOGP_HCOOH [1, 2]","LOGP_NEUTRAL [1, 3]","LOGP_HCOOH [1, 4]",Structure (SMILES),efficacy (caterpillars killed) (Spodoptera frugiperda; application rate 500 g/ha),other results
3.85,3.75,–,N#CC1CCC(CNC(=O)c2cc(-c3ccc(OC(F)(F)F)cc3)cc(NC(=O)C3CC3)n2)CC1 (stereo not drawn) [Example I-198],100%,efficacy (caterpillars killed) (Spodoptera frugiperda; application rate 100 g/ha): 100%
–,4.59,4.68,O=C(NCc1ccc(C(F)(F)F)cc1F)c1cc(-c2ccc(C(F)(F)F)cc2)cc(NC(=O)C2CC2)n1 [Example I-054],100%,–
–,3.81,3.88,CC(C)C(=O)Nc1cc(-c2ccc(C(F)(F)F)cc2)cc(C(=O)NCc2ccc(Cl)nc2)n1 [Example I-014],80%,–
4.20,4.20,–,CCN(C(=O)C(C)C)c1cc(-c2ccc(OC(F)(F)F)cc2)cc(C(=O)NCc2ccc(C#N)cc2)n1 [Example I-221],–,efficacy (caterpillars killed) (Spodoptera frugiperda; application rate 100 g/ha): 80%
4.28,–,–,CCC(C#N)(CC)NC(=O)c1cc(-c2ccc(OC(F)(F)F)cc2)cc(NC(=O)C2CC2)n1 [Example I-139],100%,–
–,–,4.24,O=C(NCc1cccc(F)c1)c1cc(-c2ccc(C(F)(F)F)cc2)cc(NC(=O)C2CC2)n1 [Example I-003],83%,–
3.39,3.35,–,CC(=O)N(C)c1cc(-c2ccc(OC(F)(F)F)cc2)cc(C(=O)NCc2ccc(C#N)cc2)n1 [Example I-220],100%,–
–,4.15,4.26,N#Cc1ccc(CNC(=O)c2cc(-c3ccc(C(F)(F)F)cc3)cc(NC(=O)c3ccccc3Cl)n2)cc1 [Example I-047],83%,–
–,4.51,–,N#Cc1ccc(CNC(=O)c2cc(-c3ccc(OC(F)(F)F)cc3)cc(NC(=O)C3CCCC3)n2)cc1 [Example I-207],100%,–
4.32,4.24,–,CC1(NC(=O)c2cc(-c3ccc(OC(F)(F)F)cc3)cc(NC(=O)C3CC3)n2)CSC1 [Example I-163],100%,–
3.58,–,–,N#CC1(NC(=O)c2cc(-c3ccc(OC(F)(F)F)cc3)cc(NC(=O)C3CC3)n2)CCOCC1 [Example I-134],100%,efficacy (caterpillars killed) (Spodoptera frugiperda; application rate 100 g/ha): 83%
4.23,–,–,O=C(NC1(c2ccc([N+](=O)[O-])cc2)CC1)c1cc(-c2ccc(OC(F)(F)F)cc2)cc(NC(=O)C2CC2)n1 [Example I-229],100%,–
–,–,4.34,N#Cc1ccc(CNC(=O)c2cc(-c3cc(F)c(C(F)(F)C(F)(F)F)cc3Cl)cc(NC(=O)C3CC3)n2)cc1 [Example I-269],83%,–
4.97,4.85,–,O=C(NCC1CCC(C(F)(F)F)CC1)c1cc(-c2ccc(OC(F)(F)F)cc2)cc(NC(=O)C2CC2)n1 (stereo not drawn) [Example I-156],100%,efficacy (caterpillars killed) (Spodoptera frugiperda; application rate 100 g/ha): 100%
–,–,4.57,N#Cc1ccc(CNC(=O)c2cc(-c3ccc(OC(F)(F)F)cc3)cc(NC(=O)C3(C(F)(F)F)CC3)n2)cc1 [Example I-242],100%,"LOGP_NEUTRAL ([1]; log P (neutral), HPLC reversed-phase column (C 18)): 4.63"
4.85,4.72,–,"CCc1cc(C(F)(F)C(F)(F)F)cc(C)c1-c1cc(NC(=O)C2CC2)nc(C(=O)NCc2ccc(C#N)cc2)c1 [Example I-148, N-(4-Cyanobenzyl)-6-[(cyclopropylcarbonyl)amino]-4-[2-ethyl-6-methyl-4-(pentafluoroethyl)phenyl]pyridine-2-carboxamide]",–,"pest or weed control at 500 g/ha (Spodoptera frugiperda; [5]): 100%; chromatographic logP [1, 6]: 4.85; chromatographic logP [1, 7]: 4.72"
4.42,4.24,–,N#Cc1ccc2c(c1)CCC2NC(=O)c1cc(-c2ccc(OC(F)(F)F)cc2)cc(NC(=O)C2CC2)n1 (stereo not drawn) [Example I-164],100%,efficacy (caterpillars killed) (Spodoptera frugiperda; application rate 100 g/ha): 100%
–,4.66,4.77,N#Cc1ccc(CNC(=O)c2cc(-c3ccc(C(F)(F)F)cc3)cc(NC(=O)c3ccc(Cl)cc3)n2)cc1 [Example I-023],83%,–

"LOGP_HCOOH [1, 2]","LOGP_NEUTRAL [1, 3]","LOGP_HCOOH [1, 4]",Structure (SMILES),efficacy (caterpillars killed) (Spodoptera frugiperda; application rate 500 g/ha),other results
3.09,3.00,–,O=C(NC1CCS(=O)(=O)C1)c1cc(-c2ccc(OC(F)(F)F)cc2)cc(NC(=O)C2CC2)n1 (stereo not drawn) [Example I-187],83%,–
3.68,–,–,N#Cc1ccc2[nH]nc(NC(=O)c3cc(-c4ccc(OC(F)(F)F)cc4)cc(NC(=O)C4CC4)n3)c2c1 [Example I-166],83%,–
–,4.10,4.21,O=C(NCC1CCC1)c1cc(-c2ccc(C(F)(F)F)cc2)cc(NC(=O)C2CC2)n1 [Example I-049],83%,–
–,4.79,4.94,O=C(NCCCc1ccc(C(F)(F)F)cc1)c1cc(-c2ccc(C(F)(F)F)cc2)cc(NC(=O)C2CC2)n1 [Example I-058],100%,–
–,–,4.45,N#Cc1ccc(CNC(=O)c2cc(-c3ccc(C(F)(F)C(F)(F)F)c(Cl)c3)cc(NC(=O)C3CC3)n2)cc1 [Example I-273],100%,–
–,3.98,4.06,CC(C)CNC(=O)c1cc(-c2ccc(C(F)(F)F)cc2)cc(NC(=O)C2CC2)n1 [Example I-032],100%,–
4.01,3.91,–,COC(C)C(=O)Nc1cc(-c2ccc(OC(F)(F)F)cc2)cc(C(=O)NCc2ccc(C#N)cc2)n1 (stereo not drawn) [Example I-223],100%,–
3.94,3.83,–,N#Cc1ccc(CNC(=O)c2cc(-c3ccc(OC(F)(F)F)c(F)c3)cc(NC(=O)C3CC3)n2)cc1 [Example I-121],100%,efficacy (caterpillars killed) (Spodoptera frugiperda; application rate 100 g/ha): 83%
4.18,3.99,–,N#Cc1ccc(CNC(=O)c2cc(-c3ccc(OC(F)(F)F)cc3Cl)cc(NC(=O)C3CC3)n2)cc1 [Example I-122],100%,efficacy (caterpillars killed) (Spodoptera frugiperda; application rate 100 g/ha): 100%
4.16,4.01,–,N#Cc1ccc(CNC(=O)c2cc(-c3ccc(OC(F)(F)F)cc3)cc(NC(=O)Cc3ccc([N+](=O)[O-])cc3)n2)cc1 [Example I-211],100%,efficacy (caterpillars killed) (Spodoptera frugiperda; application rate 100 g/ha): 83%
4.68,4.55,–,O=C(NCC1CCCC1)c1cc(-c2ccc(OC(F)(F)F)cc2)cc(NC(=O)C2CC2)n1 [Example I-170],100%,efficacy (caterpillars killed) (Spodoptera frugiperda; application rate 100 g/ha): 83%
–,5.07,5.20,O=C(NCc1cc(F)c(Cl)cc1Cl)c1cc(-c2ccc(OC(F)(F)F)cc2)cc(NC(=O)C2CC2)n1 [Example I-063],100%,–
3.44,3.34,–,N#Cc1ccc(CNC(=O)c2cc(-c3ccc(OC(F)(F)F)cc3)cc(NC(=O)c3cnco3)n2)cc1 [Example I-212],100%,–
–,3.80,3.88,O=C(NC1CCC1)c1cc(-c2ccc(C(F)(F)F)cc2)cc(NC(=O)C2CC2)n1 [Example I-033],100%,–
4.35,4.22,–,O=C(NC1CCCC1)c1cc(-c2ccc(OC(F)(F)F)cc2)cc(NC(=O)C2CC2)n1 [Example I-169],100%,efficacy (caterpillars killed) (Spodoptera frugiperda; application rate 100 g/ha): 100%
–,3.76,3.80,N#Cc1ccc(CCNC(=O)c2cc(-c3ccc(C(F)(F)F)cc3)cc(NC(=O)C3CC3)n2)cc1 [Example I-046],83%,–
5.54,5.43,–,"N#Cc1ccc(CNC(=S)c2cc(-c3ccc(OC(F)(F)F)cc3)cc(NC(=S)C3CC3)n2)cc1 [Example I-181, N-(4-Cyanobenzyl)-6-[(cyclopropylcarbonothioyl)amino]-4-[4-(trifluoromethoxy)phenyl]pyridine-2-carbothioamide]",–,"pest or weed control at 100 g/ha (Spodoptera frugiperda; Spodoptera frugiperda, foliar, 168 h, application rate 100 g/ha, read-out: efficacy (caterpillars killed)): 100%; pest or weed control at 500 g/ha (Spodoptera frugiperda; [5]): 100%; chromatographic logP [1, 6]: 5.54; chromatographic logP [1, 7]: 5.43"
4.12,3.95,–,N#Cc1ccc(CNC(=O)c2cc(-c3ccc(C4(C(F)(F)F)CC4)cc3)cc(NC(=O)C3CC3)n2)cc1 [Example I-193],100%,–
